In patent US5591735A, “Androstane derivatives substituted by a quaternary ammonium group in 16-position, pharmaceutical compositions containing them and process for preparing same” (Marvishi Pharmaceutical Co., Ltd., priority 1992, dated 1997):
Structures can show the parent of a compound that is named as a salt.

Tests used:
[1] = tested on: phrenic nerve-hemidiaphragm preparation; assay: In vitro muscle relaxing effect on the isolated phrenic nerve-hemidiaphragm preparation of guinea-pigs; parameters: species or system guinea-pig; conditions: for IC90: read-out: ED90 guinea-pig
[2] = tested on: phrenic nerve-hemidiaphragm preparation; assay: In vitro muscle relaxing effect on the isolated phrenic nerve-hemidiaphragm preparation of rats; parameters: species or system rat; conditions: for IC90: read-out: ED90 rat
[3] = tested on: anterior tibial muscle (musculus tibialis anterior); assay: In vivo effect on the anterior tibial muscle of the guinea-pig; conditions: for time for the 75% neuromuscular block to decrease to 25%: 2×ED90 doses; for ED50 / ED90: Cavia porcellus, iv; for Clinical duration / Onset time: 2 × ED90 dose; for Clinical duration / Recovery 25%-75% / Onset time: guinea-pig, mean ± SEM (n = 4); for Onset time: time required to 95% block
vagus nerve = assay: Antivagal effect on anesthetized cat
neuromuscular block = assay: Comparison of the effects of 2 × ED90 doses in beagle dog; assay type: in vivo; parameters: Tetanic fade: unit not given here; conditions: mean ± SEM; for Recovery 0-75% / Recovery index / Time to max. recovery: P <0.02; for T4/T1 at max. recovery: P <0.05; for Clinical duration / Onset time / Time to 80% block / ED90 / ED95: n = 8; for Clinical duration / Onset time: P <0.001; for Time to 80% block: P <0.01; for ED90 / ED95: Canis lupus familiaris, beagle dog
Excerpt: Comparison of the effects of 2 × ED90 doses in beagle dog (no.
animals in parentheses). Mean ± SEM.

[4] = tested on: phrenic nerve-hemidiaphragm preparation; assay: Reversal of the in vitro neuromuscular block (wash-out, neostigmine, edrophonium); parameters: species or system rats and guinea-pigs
vagus = conditions: 4×ED90 dose; cited from earlier work
[5] = background; cited from earlier work
[6] = rat, 0.1 Hz, 0.2 ms, supramaximal stimulus, mean ± SEM (n = 4)

Row | Molecule | IC90 [2, 6] | time for the 75% neuromuscular block to decrease to 25% ([3]; guinea-pigs) | ED50 [3] | ED90 [3] | Clinical duration [3] | Recovery 25%-75% [3] | Onset time [3] | IC90 ([1]; Cavia porcellus) | IC90 ([2]; Rattus norvegicus) | Recovery 0-75% (neuromuscular block; 2 × ED90, beagle dog, n = 4) | Recovery index (neuromuscular block; 2 × ED90, beagle dog, n = 4) | Time to max. recovery (neuromuscular block; 2 × ED90, beagle dog, n = 4) | T4/T1 at max. recovery (neuromuscular block; 2 × ED90, beagle dog, n = 4) | Clinical duration (neuromuscular block; 2 × ED90, beagle dog) | Onset time (neuromuscular block; 2 × ED90, beagle dog) | Time to 80% block (neuromuscular block; 2 × ED90, beagle dog) | ED90 (neuromuscular block) | ED95 (neuromuscular block) | cardiovascular side effects / stability [5] | other results
1 | 7',12dihydroxy-6,6dimethoxy-2,2',2trimethyltubocuraranium chloride hydrochloride [Tubocurarine chloride] | 1020 ± 10 nM |  |  |  |  |  |  |  |  |  |  |  |  |  |  |  |  |  |  | IC90 ([1]; guinea-pig, 0.1 Hz, 0.2 ms, supramaximal stimulus, mean ± SEM (n = 4)): 1330 ± 90 nM
2 | C=CC[N+]1([C@H]2C[C@H]3[C@@H]4CC[C@H]5C[C@H](OC(C)=O)[C@@H](N6CCC7(CC6)OCCO7)C[C@]5(C)[C@H]4CC[C@]3(C)[C@H]2OC(C)=O)CCCC1.[Br-] [Example 8, 1-[3α,17β-bis(acetyloxy)-2β-(1,4-dioxa-8-azaspiro[4.5]dec-8-yl)-5α-androstan-16β-yl]-1-(2-propenyl)pyrrolidinium bromide] |  | 10.1 min | 0.034 ± 0.002 mg/kg | 0.048 ± 0.0027 mg/kg | 10.1 ± 1.32 min | 2.4 ± 0.3 min | 0.9 ± 0.18 min | 900 ± 30 nM | 8370 ± 260 nM | 16.2 ± 0.9 min | 3.4 ± 0.4 min | 24.4 ± 2.0 min | 91.3 ± 4.8 | 12.6 ± 0.6 min | 75.3 ± 5.9 s | 48.4 ± 2.9 s | 0.0105 ± 0.0002 mg/kg | 0.0111 ± 0.0002 mg/kg |  | duration of action compared with reference substances ([3]; guinea-pigs, in vivo): shorter than those of other reference substances with similar chemical structure; onset of action compared with reference substances ([3]; guinea-pigs, in vivo): more rapid; block of the vagus (vagus nerve; 8×ED90 dose): did not block the vagus; inhibition of the effects of electrical stimulation of the vagus on heart rate or blood pressure (vagus nerve; 8×ED90 dose): did not inhibit the effects of electrical stimulation of this nerve on heart rate or blood pressure; change in heart rate or blood pressure on electrical stimulation of the vagus (vagus nerve; in vivo cat experiments): no significant change in heart rate or blood pressure; effect on the vagus (vagus nerve; in vivo cat experiments): no stimulating effect on the vagus; Decrease in heart rate (vagus nerve; vagal stimulation, anesthetized cat, mean ± SEM (n = 4), control 14 ± 1.8): 15 ± 2.9%; Decrease in blood pressure (vagus nerve; vagal stimulation, anesthetized cat, mean ± SEM (n = 4), control 40.0 ± 8.1): 32.0 ± 6.6 Hgmm; neuromuscular blocking (inhibitory) effect compared with known muscle relaxants ([1]; guinea-pig, in vitro): of the similar order of magnitude as that of other known, clinically employed muscle relaxants; neuromuscular blocking (inhibitory) effect compared with known muscle relaxants ([2]; rat, in vitro): of the similar order of magnitude as that of other known, clinically employed muscle relaxants; Tetanic fade (neuromuscular block; 2 × ED90, beagle dog, n = 4, P n.s. (not significant)): 97.5 ± 1.9; onset of action ([4]; in vitro): rapid; reversibility by wash-out ([4]; in vitro): easily reversible by wash-out; antagonism of the effect ([4]; with neostigmine methyl sulfate or edrophonium chloride): could also be antagonized with neostigmine methyl sulfate
3 | CC(=O)O[C@H]1C[C@@H]2CC[C@@H]3[C@H](CC[C@@]4(C)[C@H]3C[C@H]([N+]3(C)CCCCC3)[C@@H]4OC(C)=O)[C@@]2(C)C[C@@H]1[N+]1(C)CCCCC1 [Pancuronium bromide, 1'-[3α,17β-bis(acetyloxy)-5α-androstane-2β,16β-diyl]bis[1-methylpiperidinium]dibromide] |  | 45.6 min | 0.01 ± 0.0011 mg/kg | 0.015 ± 0.0019 mg/kg | 45.6 ± 5.68 min | 14.8 ± 2.45 min | 1.1 ± 0.31 min | 290 ± 10 nM | 6360 ± 30 nM |  |  |  |  |  |  |  |  |  |  | inhibition of the decrease of blood pressure caused by vagal stimulation (vagus): 50%; inhibition of the decrease of heart rate caused by vagal stimulation (vagus): 50%
4 | CC(=O)O[C@H]1C[C@@H]2CC[C@@H]3[C@H](CC[C@@]4(C)[C@H]3C[C@H](N3CC[N+](C)(C)CC3)[C@@H]4OC(C)=O)[C@@]2(C)C[C@@H]1N1CC[N+](C)(C)CC1.[Br-].[Br-] [Pipecuronium bromide, 4,4'-[3α,17β-bis(acetyloxy)-5α-androstane-2β,16β-diyl]bis[1,1-dimethylpiperazinium]dibromide] | 1500 ± 40 nM | 60.6 min | 0.004 ± 0.0007 mg/kg | 0.006 ± 0.0007 mg/kg | 60.6 ± 9.28 min | 24.6 ± 3.71 min | 1.5 ± 0.08 min |  |  |  |  |  |  |  |  |  |  |  | exceed those of pancuronium bromide or vecuronium bromide | IC90 ([1]; Cavia porcellus, guinea-pig, 0.1 Hz, 0.2 ms, supramaximal stimulus, mean ± SEM (n = 4)): 80 ± 3 nM
5 | CC(=O)O[C@H]1C[C@@H]2CC[C@@H]3[C@H](CC[C@@]4(C)[C@H]3C[C@H]([N+]3(C)CCCCC3)[C@@H]4OC(C)=O)[C@@]2(C)C[C@@H]1N1CCCCC1 [Vecuronium bromide, 1-[3α,17β-bis(acetyloxy)-2β-(1-piperidinyl)androstan-16β-yl]1-methylpiperidinium bromide hydrochloride] |  |  | 0.007 ± 0.0019 mg/kg | 0.011 ± 0.002 mg/kg | 26.6 ± 4.61 min | 9.0 ± 2.35 min | 1.3 ± 0.51 min | 250 ± 10 nM | 8720 ± 380 nM | 24.9 ± 3.0 min | 6.6 ± 1.1 min | 31.4 ± 4.3 min | 71.0 ± 2.9 | 17.8 ± 1.1 min | 115.1 ± 8.6 s | 62.8 ± 4.5 s | 0.0358 ± 0.0009 mg/kg | 0.0379 ± 0.001 mg/kg | lack of cardiovascular side effects | 
